Measurements as given in the supplement of paper PMC10307832.

The cell lines below were run with O=C(/C=C/c1ccccc1)NC(NC(=S)Nc1cccc2cccnc12)C(Cl)(Cl)Cl [Salubrinal] + NC(=O)Nc1cc(-c2cccc(F)c2)sc1C(=O)N[C@H]1CCCNC1 [AZD7762] (partner 0.2 µM) (assay: relative viability (nuclei count vs DMSO), 5 days (fraction); higher = more cells survive). Details: first compound 0.08 µM.
How it was run: (§1)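 A single step with final 0.05% Triton X-100, 1% formaldehyde and 1 ug/ml Hoechst fixed the cells and stained nuclei 5 days after treatment. Lung cancer cell lines in 1536-well plates had been treated by pin tool the day after seeding with one drug alone or a fixed anchor-drug dose plus five library-drug doses (not always all listed) in √10 steps, and nuclei were counted on 4× images. Relative viability is the ratio of nuclei in treated wells to nuclei in vehicle wells, taken as the median of duplicate plates.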

Cell Line | relative viability
NCI-H1975 | 0.691
RERF-LC-KJ | 1.05
ABC-1 | 0.97
NCI-H1944 | 0.563
NCI-H650 | 1.01
PC-3 [JPC-3] | 0.833

Same assay, conditions: first compound 0.253 µM

Cell Line | relative viability
NCI-H1975 | 0.611
RERF-LC-KJ | 0.917
ABC-1 | 0.998
NCI-H1944 | 0.471
NCI-H650 | 1.19
PC-3 [JPC-3] | 0.67

Same assay, conditions: first compound 0.8 µM

Cell Line | relative viability
NCI-H1975 | 0.853
RERF-LC-KJ | 1.1
ABC-1 | 0.948
NCI-H1944 | 0.472
NCI-H650 | 1.04
PC-3 [JPC-3] | 0.923

Same assay, conditions: first compound 2.53 µM

Cell Line | relative viability
NCI-H1975 | 0.744
RERF-LC-KJ | 0.999
ABC-1 | 0.898
NCI-H1944 | 0.433
NCI-H650 | 0.953
PC-3 [JPC-3] | 0.928

Same assay, conditions: first compound 8 µM

Cell Line | relative viability
NCI-H1975 | 0.601
RERF-LC-KJ | 0.885
ABC-1 | 0.825
NCI-H1944 | 0.596
NCI-H650 | 0.883
PC-3 [JPC-3] | 0.671

What follows are cell lines tested with O=C(/C=C/c1ccccc1)NC(NC(=S)Nc1cccc2cccnc12)C(Cl)(Cl)Cl [Salubrinal] + Nc1ncn([C@H]2C[C@H](O)[C@@H](CO)O2)c(=O)n1 [Decitabine] (partner 2 µM) in the same assay as above. Details: first compound 0.08 µM.
How it was run: as §1

Cell Line | relative viability
NCI-H1975 | 0.315
RERF-LC-KJ | 0.834
ABC-1 | 1.42
NCI-H1944 | 0.445
NCI-H650 | 0.288
PC-3 [JPC-3] | 0.848

Same assay, conditions: first compound 0.253 µM

Cell Line | relative viability
NCI-H1975 | 0.357
RERF-LC-KJ | 0.605
ABC-1 | 0.915
NCI-H1944 | 0.452
NCI-H650 | 0.297
PC-3 [JPC-3] | 0.836

Same assay, conditions: first compound 0.8 µM

Cell Line | relative viability
NCI-H1975 | 0.351
RERF-LC-KJ | 0.792
ABC-1 | 1.14
NCI-H1944 | 0.43
NCI-H650 | 0.352
PC-3 [JPC-3] | 0.891

Same assay, conditions: first compound 2.53 µM

Cell Line | relative viability
NCI-H1975 | 0.389
RERF-LC-KJ | 0.697
ABC-1 | 1.01
NCI-H1944 | 0.476
NCI-H650 | 0.298
PC-3 [JPC-3] | 0.848

Same assay, conditions: first compound 8 µM

Cell Line | relative viability
NCI-H1975 | 0.366
RERF-LC-KJ | 0.598
ABC-1 | 1.13
NCI-H1944 | 0.428
NCI-H650 | 0.323
PC-3 [JPC-3] | 0.81

The cell lines below were run with O=C(/C=C/c1ccccc1)NC(NC(=S)Nc1cccc2cccnc12)C(Cl)(Cl)Cl [Salubrinal] + CS(=O)(=O)N1CCN(Cc2cc3nc(-c4cccc5[nH]ncc45)nc(N4CCOCC4)c3s2)CC1 [Pictilisib] (partner 1 µM) in the same assay as above. Details: first compound 0.08 µM.
How it was run: as §1

Cell Line | relative viability
NCI-H1975 | 0.259
RERF-LC-KJ | 0.664
ABC-1 | 0.705
NCI-H1944 | 0.349
NCI-H650 | 0.678
PC-3 [JPC-3] | 0.796

Same assay, conditions: first compound 0.253 µM

Cell Line | relative viability
NCI-H1975 | 0.269
RERF-LC-KJ | 0.622
ABC-1 | 0.92
NCI-H1944 | 0.328
NCI-H650 | 1.1
PC-3 [JPC-3] | 0.666

Same assay, conditions: first compound 0.8 µM

Cell Line | relative viability
NCI-H1975 | 0.338
RERF-LC-KJ | 0.549
ABC-1 | 0.812
NCI-H1944 | 0.362
NCI-H650 | 0.968
PC-3 [JPC-3] | 0.714

Same assay, conditions: first compound 2.53 µM

Cell Line | relative viability
NCI-H1975 | 0.269
RERF-LC-KJ | 0.608
ABC-1 | 0.727
NCI-H1944 | 0.348
NCI-H650 | 0.916
PC-3 [JPC-3] | 0.727

Same assay, conditions: first compound 8 µM

Cell Line | relative viability
NCI-H1975 | 0.278
RERF-LC-KJ | 0.52
ABC-1 | 0.588
NCI-H1944 | 0.307
NCI-H650 | 0.842
PC-3 [JPC-3] | 0.702

Each cell line was assayed with Cc1ccc2nc(NCCN)c3ncc(C)n3c2c1 + O=C(c1cc(Cc2n[nH]c(=O)c3ccccc23)ccc1F)N1CCN(C(=O)C2CC2)CC1 [Olaparib] (partner 8 µM) in the same assay as above. Details: first compound 0.04 µM.
How it was run: as §1

Cell Line | relative viability
NCI-H1975 | 0.791
RERF-LC-KJ | 0.995
ABC-1 | 0.781
NCI-H1944 | 0.388
NCI-H650 | 0.374
PC-3 [JPC-3] | 1.23

Same assay, conditions: first compound 0.1265 µM

Cell Line | relative viability
NCI-H1975 | 0.81
RERF-LC-KJ | 0.919
ABC-1 | 0.785
NCI-H1944 | 0.387
NCI-H650 | 0.364
PC-3 [JPC-3] | 1.09

Same assay, conditions: first compound 0.4 µM

Cell Line | relative viability
NCI-H1975 | 0.809
RERF-LC-KJ | 1.06
ABC-1 | 0.639
NCI-H1944 | 0.403
NCI-H650 | 0.39
PC-3 [JPC-3] | 1.13

Same assay, conditions: first compound 1.265 µM

Cell Line | relative viability
NCI-H1975 | 0.704
RERF-LC-KJ | 0.801
ABC-1 | 0.691
NCI-H1944 | 0.397
NCI-H650 | 0.393
PC-3 [JPC-3] | 1.11

Same assay, conditions: first compound 4 µM

Cell Line | relative viability
NCI-H1975 | 0.682
RERF-LC-KJ | 0.579
ABC-1 | 1.04
NCI-H1944 | 0.388
NCI-H650 | 0.399
PC-3 [JPC-3] | 1.02
